Source: article PMC6753678, “Fueling Open Innovation for Malaria Transmission-Blocking Drugs: Hundreds of Molecules Targeting Early Parasite Mosquito Stages” (Frontiers in Microbiology, 2019)
Read-outs that look alike come from different tables or passages of the source.

Experiments:
HepG2 cells = test: HepG2 cytotoxicity assay; conditions: for IC50: read-out: HepG2 cytotoxicity assay IC50, dose response confirmation; for Pb ODA (this manuscript) HepG2 cytoxicity: HepG2 cytotoxicity listed with the Pb ODA data set (this manuscript)
How it was run: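 Percent inhibition derived from fluorescent viability readout, normalised to DMSO (negative) and 50 μM doxorubicin (positive). Compound incubation lasted 48 h at 37°C, 5% CO2, with 2,500 HepG2 cells/well in MEM plus 10% FBS and 1% NEAA.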

[1] = test system: 3D7-strain P. falciparum asexual parasites; test: P. falciparum asexual growth inhibition assay (Pf GIA); type: cell-based, Plasmodium falciparum; conditions: dose response confirmation; read-out: Pf asexual growth inhibition assays IC50
How it was run: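 LDH readout: absorbance at 650 nm after 10 min at room temperature with lactate/APAD/NBT/diaphorase mix on thawed plates. Cultures (0.25% parasitemia, 2% hematocrit) were treated 72 h at 37°C in low-oxygen gas. Inhibition was normalised to 50 μM chloroquine and DMSO; n=3 biological replicates.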

[2] = test system: P. berghei ookinete development; conditions: for % inhibition, Replicate A / % inhibition, Replicate B: primary screen at 1 μM
[3] = unified HepG2 value across the three screens
[4] = read-out: Pb ODA IC50, this manuscript
[5] = read-out: Pb Ookinete development assay IC50, dose response confirmation
[6] = read-out: Pb ODA (this manuscript) IC50, P. berghei ookinete development assay, this manuscript
[7] = HepG2 values of the three screens unified

Structure (SMILES) | IC50 (HepG2 cells) [nM] | Unified cytotox (HepG2 cells; [3]) [µM] | IC50 [1] [nM] | Is compound selective in assay? Pb ODA active? ([2]; 1: YES, 0: NO) | % inhibition, Replicate A [2] [%] | % inhibition, Replicate B [2] [%] | IC50 [2, 4] [nM] | IC50 [2, 5] [nM] | Pb ODA (this manuscript) HepG2 cytoxicity (HepG2 cells) [µM] | Is compound selective in assay? Pb ODA active? [2] | IC50 [2, 6] [nM] | HepG2 cytoxicity (Pb ODA, this manuscript) (HepG2 cells) [µM] | Unified cytotox (HepG2 cells; [7]) [µM]
N#Cc1cc([N+](=O)[O-])ccc1-n1nc(C(N)=O)n(Cc2cccc(F)c2)c1=S [TCMDC-134721] | 34700 | 34.67 | 650 | 1 (1: YES) | 66.73 | 70.30 | 1120 | 1120 | – | – | – | – | –
Cc1[nH]c(C)c(-c2ccc(-c3ccc(OC(F)(F)F)cc3)cc2)c(=O)c1Br [TCMDC-134726] | 7760 | – | 19 | – | 101.74 | 103.66 | – | 26 | 7.76 | 1 (key: 1: YES; 0: NO) | 25.7 | – | –
Cc1[nH]c(C)c(-c2ccc(Oc3ccc(F)cc3)cc2)c(=O)c1Cl [TCMDC-134728] | 56200 | – | 19 | 1 (1: YES) | 96.35 | 103.17 | 50 | 49 | – | – | – | 56.23 | 56.23
C/C=C/COc1ccc(-c2c(C)[nH]c(C)c(Cl)c2=O)cc1 [TCMDC-134729] | 100000 | – | 281 | 1 (1: YES) | 83.52 | 96.22 | 470 | 469 | – | – | – | – | 100.00
COc1ccc2nccc([C@@H](O)CN3CCC(NC(=O)c4cc5c(F)cc(F)cc5[nH]4)CC3)c2n1 [TCMDC-134945] | 10500 | – | 769 | – | 54.14 | 76.92 | – | 415 | 10.47 | 1 (key: 1: YES; 0: NO) | 420 | – | –
Cc1cccc(Nc2nc(NCCCCN)nc3cc[nH]c(=O)c23)c1.O=C(O)C(F)(F)F [TCMDC-134946] | 28800 | 28.84 | 487 | 0 (0: NO) | 57.54 | 45.06 | 3060 | 3060 | – | – | – | – | –
CC1CN(Cc2cccc(C#N)c2)CCN1c1ccc(NC(=O)c2cccs2)cc1.O=C(O)C(F)(F)F (centres unmarked) [TCMDC-134969] | 3020 | – | 78 | – | 50.06 | 40.18 | – | 1640 | 3.02 | 0 (key: 1: YES; 0: NO) | – | – | –
CCC(C)CN1CCN(c2ccc(NC(=O)c3cccs3)cc2)C(C)C1.O=C(O)C(F)(F)F (centres unmarked) [TCMDC-134996] | 60300 | – | 753 | – | 97.72 | 83.44 | – | 1050 | 60.26 | 1 (key: 1: YES; 0: NO) | – | – | –
CC1CN(Cc2ccccc2)CCN1c1ccc(NC(=O)c2cccs2)cc1.O=C(O)C(F)(F)F (centres unmarked) [TCMDC-135005] | 57500 | – | 504 | – | 105.18 | 99.00 | – | 732 | 57.54 | 1 (key: 1: YES; 0: NO) | 730 | – | –
CC1CN(Cc2cccc(F)c2)CCN1c1ccc(NC(=O)c2cccs2)cc1.O=C(O)C(F)(F)F (centres unmarked) [TCMDC-135009] | 120000 | – | 242 | – | 59.80 | 66.69 | – | 420 | 120.23 | 1 (key: 1: YES; 0: NO) | – | – | –
O=C(Nc1ccc(N2CCCN(Cc3cccc(F)c3)CC2)cc1)c1cccs1.O=C(O)C(F)(F)F [TCMDC-135012] | 78500 | – | 650 | – | 50.47 | 51.73 | – | 1900 | 78.52 | 1 (key: 1: YES; 0: NO) | 1900 | – | –
CN(Cc1cccc(F)c1)C1CCN(c2cc(NC(=O)c3ccc(F)cc3)ccn2)CC1.O=C(O)C(F)(F)F [TCMDC-135018] | 140 | 0.14 | 31 | 0 (0: NO) | 54.82 | 42.75 | 6060 | 6060 | – | – | – | – | –
O=C(O)C(F)(F)F.O=c1[nH]ccc2nc(N[C@@H]3CCCNC3)nc(Nc3ccc(S(=O)(=O)N4CCOCC4)cc3)c12 [TCMDC-135038] | 45700 | 45.71 | 347 | 1 (1: YES) | 53.41 | 58.16 | 1550 | 1540 | – | – | – | – | –
C=CCOc1ccc(-c2c(C)[nH]c(C)c(Br)c2=O)cc1 [TCMDC-135042] | 7080 | – | 226 | – | 92.87 | 107.55 | – | 700 | 7.08 | 1 (key: 1: YES; 0: NO) | – | – | –
COCCn1c(-c2cccc(Cl)c2)nn(-c2ccc([N+](=O)[O-])cc2Cl)c1=S [TCMDC-135130] | 100000 | 100.00 | 947 | 1 (1: YES) | 51.94 | 48.77 | – | 1600 | – | – | – | – | –
COc1ccc2ncc(C#N)c(CCN3C4CCC3CC(NCc3ccc5c(n3)NC(=O)CS5)C4)c2c1.Cl (centres unmarked) [TCMDC-135180] | 6460 | – | 630 | 0 (0: NO) | 66.14 | 72.52 | 3070 | 3070 | – | – | – | 6.46 | 6.46
C#C[C@H]1O[C@@H](n2cnc3c(Nc4cc(Br)cc(C(F)(F)F)c4)ncnc32)[C@H](O)[C@@H]1O [TCMDC-135185] | 57500 | 57.54 | 3380 | 1 (1: YES) | 92.13 | 83.74 | 530 | 533 | – | – | – | – | –
COc1ccc2ncc(C#N)c(CCN3CCC(NCc4ccc5c(n4)NC(=O)CS5)CC3)c2n1.Cl [TCMDC-135188] | 55000 | – | 2370 | 1 (1: YES) | 67.48 | 73.91 | 770 | 768 | – | – | – | 54.95 | 54.95
COc1c(C)[nH]c(C)c(-c2ccc(Oc3cccc(C(F)(F)F)c3)cc2)c1=O [TCMDC-135253] | 1300 | – | 937 | – | 56.53 | 75.40 | – | 3600 | 1.30 | 0 (key: 1: YES; 0: NO) | 3600 | – | –
Cc1[nH]c(C)c(-c2ccc(OCc3ccc(OC(F)(F)F)cc3)nc2)c(=O)c1Br [TCMDC-135254] | 87100 | – | 122 | 1 (1: YES) | 57.86 | 80.15 | 1680 | 1680 | – | – | – | 87.10 | 87.10
Cc1[nH]c(C)c(-c2ccc(OCc3ccc(OC(F)(F)F)cc3)nc2)c(=O)c1Cl [TCMDC-135271] | 100000 | – | 67 | 1 (1: YES) | 71.19 | 76.52 | 1070 | 1070 | – | – | – | – | 100.00
COc1cc(NC2=C(c3ccccc3)C(=O)c3ccccc32)ccn1 [TCMDC-135283] | 100000 | – | 286 | – | 80.47 | 74.75 | – | 743 | 100.00 | 1 (key: 1: YES; 0: NO) | 740 | – | –
CCNC(=O)Nc1ccc(-c2cnc(N)c(-c3nc4ccc(OC)cc4[nH]3)c2)cc1 [TCMDC-135321] | 6680 | 6.68 | 364 | 0 (0: NO) | 44.00 | 70.87 | 2330 | 2330 | – | – | – | – | –
COc1ccc2nc(-c3cc(-c4ccc(NC(=O)C(C)C)cc4)cnc3N)[nH]c2c1 [TCMDC-135322] | 8610 | 8.61 | 277 | 1 (1: YES) | 29.63 | 78.93 | 420 | 423 | – | – | – | – | –
